Biological target: T1, human PAH with the R408W mutation (Homo sapiens, UniProt P00439, R408W)
T1 construct: expressed in transfected cells
T1 sequence (P00439 1-452 R408W): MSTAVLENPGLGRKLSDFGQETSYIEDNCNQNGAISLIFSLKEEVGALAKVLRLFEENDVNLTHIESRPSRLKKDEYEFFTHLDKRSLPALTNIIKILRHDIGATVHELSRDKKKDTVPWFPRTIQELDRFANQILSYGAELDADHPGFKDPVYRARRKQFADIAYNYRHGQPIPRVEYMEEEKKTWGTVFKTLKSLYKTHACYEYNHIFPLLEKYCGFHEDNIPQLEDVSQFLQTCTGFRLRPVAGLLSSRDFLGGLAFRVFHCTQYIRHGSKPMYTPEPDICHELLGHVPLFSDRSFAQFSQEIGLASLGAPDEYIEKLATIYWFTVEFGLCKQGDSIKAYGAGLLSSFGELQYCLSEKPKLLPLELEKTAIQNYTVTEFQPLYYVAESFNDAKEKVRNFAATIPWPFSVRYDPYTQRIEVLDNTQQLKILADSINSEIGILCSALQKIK
Test: Cell Based Phenylalanine Flux Assay;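 note: after compound treatment, cells received sepiapterin plus isotope-labelled Phenylalanine for 4 hours, then labelled Tyrosine in the medium was quantified, 10-point 2-fold dilution series run in duplicate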
Settings: A375 cells expressing human R408W PAH; 24 hrs compound incubation; 13C-Tyrosine by LC-MS; average where tested multiple times; read-out: AC50

AC50 | SMILES
< 500 nM | Cn1nc(C(F)F)cc1C(=O)N1CCc2[nH]cnc2[C@H]1c1cc2c(F)cccn2n1 [Example 864, (S)-(3-(difluoromethyl)-1-methyl-1H-pyrazol-5-yl)(4-(4-fluoropyrazolo[1,5-a]pyridin-2-yl)-6,7-dihydro-1H-imidazo[4,5-c]pyridin-5(4H)-yl)methanone]
> 5000 nM | Cn1cncc1-c1nc(C(F)F)c(C(=O)N2CCc3[nH]cnc3[C@@H]2c2cc3ccccn3n2)o1 [Example 868, (R)-(4-(difluoromethyl)-2-(1-methyl-1H-imidazol-5-yl)oxazol-5-yl)(4-(pyrazolo[1,5-a]pyridin-2-yl)-6,7-dihydro-1H-imidazo[4,5-c]pyridin-5(4H)-yl)methanone]
500 to 1000 nM | Cn1cncc1-c1nc(C(F)F)c(C(=O)N2CCc3[nH]cnc3[C@H]2c2cc3ccccn3n2)o1 [Example 869, (S)-(4-(difluoromethyl)-2-(1-methyl-1H-imidazol-5-yl)oxazol-5-yl)(4-(pyrazolo[1,5-a]pyridin-2-yl)-6,7-dihydro-1H-imidazo[4,5-c]pyridin-5(4H)-yl)methanone]
> 5000 nM | Cc1ccc(-c2nnc(C(=O)N3CCc4[nH]cnc4[C@@H]3c3cc4c(C)cccn4n3)o2)nc1 [Example 870, (R)-(4-(4-methylpyrazolo[1,5-a]pyridin-2-yl)-6,7-dihydro-1H-imidazo[4,5-c]pyridin-5(4H)-yl)(5-(5-methylpyridin-2-yl)-1,3,4-oxadiazol-2-yl)methanone]
< 500 nM | Cc1ccc(-c2nnc(C(=O)N3CCc4[nH]cnc4[C@H]3c3cc4c(C)cccn4n3)o2)nc1 [Example 871, (S)-(4-(4-methylpyrazolo[1,5-a]pyridin-2-yl)-6,7-dihydro-1H-imidazo[4,5-c]pyridin-5(4H)-yl)(5-(5-methylpyridin-2-yl)-1,3,4-oxadiazol-2-yl)methanone]
> 5000 nM | Cc1cccn2nc([C@H]3c4nc[nH]c4CCN3C(=O)c3nnc(-c4ccc(C(F)(F)F)cn4)o3)cc12 [Example 872, (R)-(4-(4-methylpyrazolo[1,5-a]pyridin-2-yl)-6,7-dihydro-1H-imidazo[4,5-c]pyridin-5(4H)-yl)(5-(5-(trifluoromethyl)pyridin-2-yl)-1,3,4-oxadiazol-2-yl)methanone]
500 to 1000 nM | Cc1cccn2nc([C@@H]3c4nc[nH]c4CCN3C(=O)c3nnc(-c4ccc(C(F)(F)F)cn4)o3)cc12 [Example 873, (S)-(4-(4-methylpyrazolo[1,5-a]pyridin-2-yl)-6,7-dihydro-1H-imidazo[4,5-c]pyridin-5(4H)-yl)(5-(5-(trifluoromethyl)pyridin-2-yl)-1,3,4-oxadiazol-2-yl)methanone]
< 500 nM | Cc1cccn2nc([C@@H]3c4nc[nH]c4CCN3C(=O)c3nnc(-c4ccc(F)cn4)o3)cc12 [Example 875, (S)-(5-(5-fluoropyridin-2-yl)-1,3,4-oxadiazol-2-yl)(4-(4-methylpyrazolo[1,5-a]pyridin-2-yl)-6,7-dihydro-1H-imidazo[4,5-c]pyridin-5(4H)-yl)methanone]
> 5000 nM | Cc1ccc(-c2nnc(C(=O)N3CCc4[nH]cnc4[C@@H]3c3cc4c(F)cccn4n3)o2)nc1 [Example 876, (R)-(4-(4-fluoropyrazolo[1,5-a]pyridin-2-yl)-6,7-dihydro-1H-imidazo[4,5-c]pyridin-5(4H)-yl)(5-(5-methylpyridin-2-yl)-1,3,4-oxadiazol-2-yl)methanone]
< 500 nM | Cc1ccc(-c2nnc(C(=O)N3CCc4[nH]cnc4[C@H]3c3cc4c(F)cccn4n3)o2)nc1 [Example 877, (S)-(4-(4-fluoropyrazolo[1,5-a]pyridin-2-yl)-6,7-dihydro-1H-imidazo[4,5-c]pyridin-5(4H)-yl)(5-(5-methylpyridin-2-yl)-1,3,4-oxadiazol-2-yl)methanone]

More lines, now with the values behind:

SMILES | AC50
Cc1nn(C)cc1-c1nnc(C(=O)N2CCc3[nH]cnc3[C@@H]2c2cc3c(F)cccn3n2)o1 [Example 847, (R)-(5-(1,3-dimethyl-1H-pyrazol-4-yl)-1,3,4-oxadiazol-2-yl)(4-(4-fluoropyrazolo[1,5-a]pyridin-2-yl)-6,7-dihydro-1H-imidazo[4,5-c]pyridin-5(4H)-yl)methanone] | > 5000 nM
Cc1cccn2nc([C@@H]3c4nc[nH]c4CCN3C(=O)c3nnc(-c4ccncc4)o3)cc12 [Example 850, (S)-(4-(4-methylpyrazolo[1,5-a]pyridin-2-yl)-6,7-dihydro-1H-imidazo[4,5-c]pyridin-5(4H)-yl)(5-(pyridin-4-yl)-1,3,4-oxadiazol-2-yl)methanone] | < 500 nM
Cc1cccn2nc([C@H]3c4nc[nH]c4CCN3C(=O)c3nnc(-c4ccncc4)o3)cc12 [Example 851, (R)-(4-(4-methylpyrazolo[1,5-a]pyridin-2-yl)-6,7-dihydro-1H-imidazo[4,5-c]pyridin-5(4H)-yl)(5-(pyridin-4-yl)-1,3,4-oxadiazol-2-yl)methanone] | > 5000 nM
Cc1cccn2nc([C@@H]3c4nc[nH]c4CCN3C(=O)c3nnc(-c4cnn(S(=O)(=O)C5CC5)c4)o3)cc12 [Example 852, (S)-(5-(1-(cyclopropylsulfonyl)-1H-pyrazol-4-yl)-1,3,4-oxadiazol-2-yl)(4-(4-methylpyrazolo[1,5-a]pyridin-2-yl)-6,7-dihydro-1H-imidazo[4,5-c]pyridin-5(4H)-yl)methanone] | 500 to 1000 nM
Cc1cccn2nc([C@@H]3c4nc[nH]c4CCN3C(=O)c3nnc(-c4cc(C)n(C)n4)o3)cc12 [Example 854, (S)-(5-(1,5-dimethyl-1H-pyrazol-3-yl)-1,3,4-oxadiazol-2-yl)(4-(4-methylpyrazolo[1,5-a]pyridin-2-yl)-6,7-dihydro-1H-imidazo[4,5-c]pyridin-5(4H)-yl)methanone] | < 500 nM
Cc1cccn2nc([C@H]3c4nc[nH]c4CCN3C(=O)c3nnc(-c4cc(C)n(C)n4)o3)cc12 [Example 855, (R)-(5-(1,5-dimethyl-1H-pyrazol-3-yl)-1,3,4-oxadiazol-2-yl)(4-(4-methylpyrazolo[1,5-a]pyridin-2-yl)-6,7-dihydro-1H-imidazo[4,5-c]pyridin-5(4H)-yl)methanone] | > 5000 nM
CC(C)n1nccc1C(=O)N1CCc2[nH]cnc2[C@H]1c1cc2ccccn2n1 [Example 856, (S)-(1-isopropyl-1H-pyrazol-5-yl)(4-(pyrazolo[1,5-a]pyridin-2-yl)-6,7-dihydro-1H-imidazo[4,5-c]pyridin-5(4H)-yl)methanone] | < 500 nM
CC(C)n1nccc1C(=O)N1CCc2[nH]cnc2[C@H]1c1cc2c(F)cccn2n1 [Example 858, (S)-(4-(4-fluoropyrazolo[1,5-a]pyridin-2-yl)-6,7-dihydro-1H-imidazo[4,5-c]pyridin-5(4H)-yl)(1-isopropyl-1H-pyrazol-5-yl)methanone] | < 500 nM
Cc1cccn2nc([C@@H]3c4nc[nH]c4CCN3C(=O)c3ccnn3C3CC3)cc12 [Example 860, (S)-(1-cyclopropyl-1H-pyrazol-5-yl)(4-(4-methylpyrazolo[1,5-a]pyridin-2-yl)-6,7-dihydro-1H-imidazo[4,5-c]pyridin-5(4H)-yl)methanone] | < 500 nM
Cc1cccn2nc([C@@H]3c4nc[nH]c4CCN3C(=O)c3ccnn3-c3ccccn3)cc12 [Example 862, (S)-(4-(4-methylpyrazolo[1,5-a]pyridin-2-yl)-6,7-dihydro-1H-imidazo[4,5-c]pyridin-5(4H)-yl)(1-(pyridin-2-yl)-1H-pyrazol-5-yl)methanone] | < 500 nM

From patent publication US20230365592A1 (Agios Pharmaceuticals, Inc., priority 2022, published 2023)
